One series relates to HCT116. Briefly: MTT antitumor spectrum, HCT116. It is filed as cell-based. To be noted: Homo sapiens, HCT-116, 72 h. On the procedure:
(§1) The activity of compound 30 was evaluated by MTT method against seven tumor cell models, A549, A375, HCT116, MDA-MB-231, HepG2, PC3 and MCF-7. All cells used in the study were prepared at a concentration of 3.5×10^3 cells/mL, and each […] cell suspension was inoculated on a 96-well microtiter plate for 24 hours (37° C., 5% CO2). Then different concentrations of compound 30 were added, incubated for 72 hours; and for the control group, equivalent concentrations of DMSO (final concentration 0.5%) were added. The number of viable cells was measured by MTT (3-(4,5-dimethylthiazol-2-yl)-diphenyl tetrazolium bromide) method, and the OD value at 492/620 nm was recorded. The IC50 value was calculated by Prism-Graphpad software based on the results of triplicate experiments.

The next series has as its system PC3. The series is described as follows: MTT antitumor spectrum, PC3. It is filed as cell-based. To be noted: Homo sapiens, PC-3, 72 h. On the procedure: as §1
Series [1] deals with human liver cancer Bel7404. The series is described as follows: Antitumor activity in vivo, Bel7404 transplanted in nude mice. Also on record: species or system male BALB/c athymic nude mice. To be noted: for RTV (d22): iv × 5; for Animal weight (g) (After tumor removal) / Inhibition rate %: iv × 5, d22. On the procedure: In the test, the Bel7404 models of human liver cancer transplanted into 6-week-old male BALB/c athymic nude mice (purchased from Shanghai Slac Laboratory Animal Co., Ltd.) with body weight of 18-20 g were used to study the anti-tumor effect of compound 30. The dose of compound 30 was 50 mg/kg (30H group), 25 mg/kg (30 M group) and 12.5 mg/kg (30 L group), respectively, and was injected intravenously twice a week for 5 times in total; at the same time, 5-FU was used as the control drug, which was injected intraperitoneally twice a week for 7 times in total (5 mice/group for the compound 30 administration group, 5 mice in 5 FU administration group; 8 mice were used as the mock group). The long diameter a (mm) and the vertical short diameter b (mm) of the tumor were measured twice a week with a digital electronic caliper. The tumor volume calculation formula was TV=ab^2/2; and the relative tumor volume calculation formula was RTV=Vt/Vo, wherein Vo was the tumor volume measured on the first day of administration (d1), and Vt was the tumor volume at each measurement. On the 22nd day of administration (d22), the animals were sacrificed and weighed. The tumor mass was dissected and weighed. The tumor inhibition rate (tumor inhibitory rate, %) was calculated according to the following formula: […]

Series [2] concerns the target T1, 20S proteasome β1 subunit (Homo sapiens, UniProt P28072+Q99436).
T1 construct: endogenous in cells; host or cells: K562
The series is described as follows: Proteasome-Glo Cell-Based assay in K562 cells, β1 subunit. The following applies: 2 h incubation. Here is the method: Proteasome-Glo™ Cell-Based assay kit (Promega, USA) was used to determine the activity of the target compound against the 20S proteasome. Human chronic myeloid leukemia cell line (K562, 6000 cells/well) was inoculated into the 384 well plate in 20 μL/well. The cells were then equilibrated at 37° C., 5% CO2 for 2 hours. Each 384 well plate was set with the mock group and treatment group, and each well of the treatment group was added with 5 μL of the compound solution with the final concentration of 40 μM, 13.3 μM, 4.44 μM, 1.48 μM, 0.49 μM, 0.16 μM, 0.055 μM, 0.0183 μM, […], 0.0061 μM. The cells was incubated with the drugs for 2 hours at 37° C., 5% CO2 before adding 25 μL of corresponding Proteasome-Glo™ Cell-Based reagent per well. The relative luminescence unit (RLU) was measured by using Multimode Microplate Reader Varioskan Flash (Thermo Scientific, USA) after 15 min and compared with the RLU of the control group. SigmaPlot 10.0 software was used to calculate IC50 value.

The next series has as its system A375. The series is described as follows: MTT antitumor spectrum, A375. It is filed as cell-based. To be noted: Homo sapiens, A-375, 72 h. Here is the method:
as §1

Series [3] in a line: Pharmacokinetic test in rats (IV and PO). It is filed as in vivo, male SD rats. Here is the method:
This experiment includes the PO group and IV group, with three animals in each group. For the PO group, about 0.25 mL of whole blood was collected from orbital venous plexus before administration, and 15 min, 30 min, 1 h, 2 h, 4 h, 7 h and 24 h after administration, and for the IV group, about 0.25 mL of whole blood was collected from orbital venous plexus before administration, and 5 min, 15 min, 30 min, 1 h, 2 h, 4 h, 7 h and 24 h after administration, which were placed in heparin anticoagulant tube. After the blood collection, the blood collection tubes containing anticoagulant agent was inverted several times to fully mix, and placed on wet ice before centrifugation. Within 60 minutes after blood collection, it was centrifuged at 8000 rpm under 2 to 8° C. for 10 minutes to separate red blood cells and obtain plasma samples. The plasma sample was transferred to a cryogenic tube and stored at −75±15° C. until analysis. 50 μL of the plasma sample was taken and added with 5 μL of acetonitrile:water (1:1, v/v), and added with 200 μL of 0.1% formic acid-acetonitrile, centrifuged (12000 rpm, 15 min); the supernatant was diluted in 1:1 with ultrapure water. The plasma drug concentration was analyzed by using LC-MS/MS method. Microsoft EXCEL was used to statistically describe the experimental data with mean, deviation % and standard deviation (SD). The pharmacokinetic parameters were calculated with WinNonlin 8.1 software. The following pharmacokinetic parameters were calculated: CL (clearance), Vd (apparent volume of distribution), T1/2 (elimination half-life time), Cmax (peak concentration), Tmax (peak time), AUC (area under the blood concentration-time curve), and F % (bioavailability).

[4] abbreviates: male, SD, rat, IV 1 mg/kg, single, plasma.
Where [5] appears, read: male, SD, rat, PO 10 mg/kg, single, plasma.

SMILES strings stand for the structures.

The term IC50 denotes the point on the concentration scale where inhibition reaches its midpoint. Low values mean greater potency, high ones weaker potency. For the compound `CC(C)C[C@H](NC(=O)Cn1nc(-c2cccc(OCCN3CCOCC3)c2)cc1-c1ccccc1)B(O)O.Cl` [Compound 30, (R)-(3-methyl-1-(2-(3-(3-(2-morpholinoethoxy)phenyl)-5-phenyl-1H-pyrazol-1-yl)-acetamido)butyl)boronic acid hydrochloride], the IC50 in the series on HCT116 worked out at 630 nM; in the series on PC3, 820 nM; in series [2], 2040 nM; in the series with A375, 820 nM. The “RTV (d22)” value in series [1] (12.5 mg/kg) is reported as 4.52 ± 1.08; in series [1] (25 mg/kg), 3.82 ± 0.67; in series [1] (50 mg/kg), 2.33 ± 0.59. Moreover, the “Animal weight (g) (After tumor removal)” value is listed as 23.11 ± 0.65 g in series [1] (12.5 mg/kg), 21.91 ± 0.56 g in series [1] (25 mg/kg) and 19.95 ± 0.45 g in series [1] (50 mg/kg). Further, the Inhibition rate % in series [1] (12.5 mg/kg) came to 24.89%; in series [1] (25 mg/kg) it was 36.55%; in series [1] (50 mg/kg) it was 61.29%.
The term bioavailability denotes the share of a dose that reaches the circulation, judged against a reference dose that is usually intravenous. A word on the AUC(0-inf): it is the area under the concentration-time curve extrapolated to infinity. A word on the AUC(0-t): it is exposure summed from dosing to a finite time, without extrapolation to infinity. Read a low AUC(0-t) as low exposure. As a reminder, the Cmax is the highest concentration seen after dosing. One may read the Tmax as the time at which the peak concentration occurs. The term half-life denotes the time needed for the level to fall by half in the phase considered. A high value points to slow loss. Take `CC(C)C[C@H](NC(=O)Cn1nc(-c2cccc(OCCN3CCN(c4ccccc4)CC3)c2)cc1-c1ccccc1)B(O)O.Cl` [Compound 39, (R)-(3-methyl-1-(2-(5-phenyl-3-(3-(2-(4-phenylpiperazin-1-yl)ethoxy)phenyl)-1H-pyrazol-1-yl)acetamido)butyl)boronic acid hydrochloride]: the “clearance (in words)” value in series [3] (IV 1 mg/kg) is reported as “medium clearance”. Also, in series [3] (IV 1 mg/kg, single, plasma, hydrochloride, 1 mg/kg), the CL_obs came out at 21.0 ± 3.4 mL/min/kg. In addition, the “distribution in vivo (in words)” value in series [3] (IV 1 mg/kg, Vd higher than total liquid volume of SD rats) is given as “widely distributed in vivo”. Moreover, the “absorption (in words)” value in series [3] (PO 10 mg/kg) was “rapid absorption”. For the same compound, the bioavailability in series [3] (male, SD, rat, plasma, PO 10 mg/kg vs IV 1 mg/kg, read-out: F (bioavailability)) was found to be 2.42 ± 1.91%. In series [3] (setting [4]), this compound showed an AUC(0-inf) of 807 ± 123 ng·h/mL, an area under the curve AUC(0-t) of 767 ± 117 ng·h/mL, a C0 of 846 ± 183 ng/mL and a Cmax of 671 ± 124 ng/mL. Also, in series [3] (setting [4]), the Tmax was found to be 4.98 min, the Vd came to 13.9 ± 2.8 L/kg and the half-life was 458 ± 18 min. In addition, in series [3] (setting [5]), the AUC(0-inf) amounted to 191 ± 147 ng·h/mL, the area under the curve AUC(0-t) amounted to 186 ± 147 ng·h/mL, the Cmax was 74.8 ± 82 ng/mL and the Tmax came to 19.8 ± 8.4 min. For the same compound, the half-life in series [3] (setting [5]) is 97.8 ± 21.6 min.

The record behind these values is patent US12473305B2, “Pyrazole boronic acid compound, pharmaceutical composition containing same, and uses thereof” (BEIJING SONGRUN PHARMACEUTICAL TECHNOLOGY CO., LTD., priority 2020, dated 2025).
